Data as given in ChEMBL document CHEMBL3244307, “Replacement of the disulfide bond in oxytocin by an amide group. Synthesis and some biological properties of (cyclo-(1-L-aspartic acid,6-L-alpha,beta-diaminopropionic acid))oxytocin” (1978).
Activity calls are given as the source filed them. The rule behind the calls is not given here. Where a SMILES comes first, the peptide text is derived from it. Bridges are numbered along the chain shown (N, C = ends). [ ]: non-standard residue; d: D form. ξ: configuration not given here. ξDap = NCC(N)C(=O)O; βAla = NCCC(=O)O

Assays:
Rattus norvegicus [1] = species: Rattus norvegicus; assay: Antidiuretic activity in rat; format: functional, Urine
Rattus norvegicus [2] = species: Rattus norvegicus; assay: Uterotonic activity in rat; format: functional
Rattus norvegicus [3] = species: Rattus norvegicus; assay: Effect on pressor response in rat; format: functional, organism-based
Gallus gallus = assay: Effect on vasodepressor activity in conscious chicken; format: functional

Row | Compound | Activity (Rattus norvegicus [1]) | Activity (Rattus norvegicus [2]) | Activity (Rattus norvegicus [3]) | Activity (Gallus gallus)
1 | CC[C@H](C)[C@@H]1NC(=O)[C@H](Cc2ccc(O)cc2)NC(=O)[C@@H](N)CC(=O)NCC(C(=O)N2CCC[C@H]2C(=O)N[C@@H](CC(C)C)C(=O)NCC(N)=O)NC(=O)[C@H](CC(N)=O)NC(=O)[C@H](CCC(N)=O)NC1=O (stereo partly drawn) (H-DYIQN[ξDap]PLG-NH2; lactam 1-6) | 5.6 U/mg | 16 U/mg | Active | 6.6 U/mg
2 | CC[C@H](C)[C@@H]1NC(=O)[C@H](Cc2ccc(O)cc2)NC(=O)[C@@H](N)CSSC[C@@H](C(=O)N2CCC[C@H]2C(=O)N[C@@H](CC(C)C)C(=O)NCC(N)=O)NC(=O)[C@H](CC(N)=O)NC(=O)[C@H](CCC(N)=O)NC1=O [OXYTOCIN] | 3 U/mg | 540 U/mg |  | 500 U/mg
3 | CC[C@H](C)[C@@H]1NC(=O)[C@H](Cc2ccc(O)cc2)NC(=O)CCNC(=O)C[C@@H](C(=O)N2CCC[C@H]2C(=O)N[C@@H](CC(C)C)C(=O)NCC(N)=O)NC(=O)[C@H](CC(N)=O)NC(=O)[C@H](CCC(N)=O)NC1=O ([βAla]YIQNDPLG-NH2; lactam N-6) |  | 1.13 U/mg |  | 
